Our source for the ED50 values is patent US4804663A, “3-piperidinyl-substituted 1,2-benzisoxazoles and 1,2-benzisothiazoles” (Janssen Pharmaceutica N.V., priority 1986, dated 1989).

Experiment [1] relates to apomorphine-induced agitation and stereotypic chewing. Put plainly: combined test in rats: apomorphine (APO). Type of experiment: in vivo, rat (adult male Wistar rats). The note with it: Rattus norvegicus, sc, 0.5 h, read-out: ED50 (APO)--rat. As to the method: (§1) The activity of the subject compounds as […] is evidenced by the experimental data obtained in at least one of two different test procedures, viz., the combined apomorphine-, tryptamine- and norepinephrine tests in rats and the apomorphine test in dogs.
(§2) The combined apomorphine (APO)-, tryptamine (TRY)- and norepinephrine (NOR) test in rats.
(§3) The experimental animals used in this test were adult male Wistar rats (weight 240±10 g). After an overnight fast, the animals were treated subcutaneously (1 ml/100 g) with an aqueous solution of the compound under investigation (time=zero) and put in isolated observation cages. Thirty minutes thereafter (time=30 minutes) 1.25 mg/kg of apomorphine hydrochloride (APO) was injected intravenously and the rats were observed over a 1 hour period for the presence or absence of the following apomorphine-induced phenomena; agitation and stereotypic chewing. At the end of this 1 hour period (time=90 minutes) the same animals were injected intravenously with 40 mg/kg of tryptamine (TRY) and the presence of the typical tryptamine-induced bilateral tonic seizures was noted. Two hours after pretreatment (time=120 minutes) finally, the same animals were challenged with 1.25 mg/kg intravenously of norephinephrine (NOR) and possible mortality was looked for up to 60 minutes later.
(§4) The table 1 gives the ED50 -value of a number of the compounds under consideration. As used herein, the ED50 -value represents the dose which protects 50% of the animals from apomorphine-, tryptamine- or norepinephrine-induced phenomena.

The subject of experiment [2] is tryptamine-induced bilateral tonic seizures. Briefly: combined test in rats: tryptamine (TRY). Type of experiment: in vivo, rat (adult male Wistar rats). The note with it: Rattus norvegicus, sc, 1.5 h, read-out: ED50 (TRY)--rat. Here is the method:
as §1, §2, §3, §4

In experiment [3] the test system is norepinephrine-induced mortality. Briefly: combined test in rats: norepinephrine (NOR). Type of experiment: in vivo, rat (adult male Wistar rats). To be noted: Rattus norvegicus, sc, 2 h; norepinephrine 1.25 mg/kg i.v. at 120 minutes; dose protecting 50% of animals. As to the method: as §1, §2, §3, §4
For experiment [4], the system named is apomorphine-induced emesis. Put plainly: apomorphine test in dogs (APO-dog). Type of experiment: in vivo, beagle dog. To be noted: Canis lupus familiaris, sc, read-out: ED50 (APO)--dog.
Description: as §1
The apomorphine test in dogs (APO-dog).
The method used is described by P. A. J. Janssen and C. J. E. Niemegeers in Arzneim.-Forsch. (Drug Res.), 9, 765-767 (1959). […]
The table 1 gives the ED50 -values of a number of the compounds under consideration. As used herein, the ED50 value represents the dose which protects 50% of the animals from emesis.

Where [5] appears, read: s.c., apomorphine 1.25 mg/kg i.v. 30 minutes after treatment, dose protecting 50% of animals.
Setting [6] is: s.c., tryptamine 40 mg/kg i.v. at 90 minutes, dose protecting 50% of animals.
Where [7] appears, read: duration 1 h, apomorphine 0.31 mg/kg s.c., dose protecting 50% from emesis.
[8] abbreviates: duration 4 h, apomorphine 0.31 mg/kg s.c., dose protecting 50% from emesis.

Read-outs that look alike come from different tables or passages of the source.

In general, ED50 refers to the dose that gives a 50% effect, or the effect in half of the subjects. As for `Cc1nc2n(c(=O)c1CCN1CCC(c3noc4cc(F)ccc34)CC1)CCCC2` [Compound 1, 3-[2-[4-(6-fluoro-1,2-benzisoxazol-3-yl)-1-piperidinyl]ethyl]-6,7,8,9-tetrahydro-2-methyl-4H-pyrido[1,2-a]pyrimidin-4-one], the ED50 came to 0.08 mg/kg in experiment [1]; 0.08 mg/kg in experiment [2]; 0.16 mg/kg in experiment [3]; 0.008 mg/kg in experiment [4] (1 h); 0.005 mg/kg in experiment [4] (2 h); 0.015 mg/kg in experiment [4] (4 h). Moreover, the values for the median effective dose (ED50) in experiment [4] (8 h) and in experiment [4] (16 h) were 0.018 mg/kg and 0.02 mg/kg, respectively.
For the compound `Cc1nc2sccn2c(=O)c1CCN1CCC(c2noc3cc(F)ccc23)CC1` [Compound 2, 6-[2-[4-(6-fluoro-1,2-benzisoxazol-3-yl)-1-piperidinyl]ethyl]-7-methyl-5H-thiazolo[3,2-a]pyrimidin-5-one], the ED50 came out at 0.02 mg/kg in experiment [1] (setting [5]); 0.005 mg/kg in experiment [2] (setting [6]); 0.31 mg/kg in experiment [3]; 0.004 mg/kg in experiment [4] (setting [7]); 0.008 mg/kg in experiment [4] (setting [8]); 0.16 mg/kg in experiment [4] (duration 16 h, apomorphine 0.31 mg/kg s.c., dose protecting 50% from emesis).
With `Cc1nc2ccccn2c(=O)c1CCN1CCC(c2noc3cc(F)ccc23)CC1` [Compound 11, 3-[2-[4-(6-fluoro-1,2-benzisoxazol-3-yl)-1-piperidinyl]ethyl]-2-methyl-4H-pyrido[1,2-a]pyrimidin-4-one], the ED50 in experiment [1] (setting [5]) was determined as 0.02 mg/kg; in experiment [2] (setting [6]), 0.01 mg/kg; in experiment [3] it was 0.16 mg/kg; in experiment [4] (setting [7]) it was 0.015 mg/kg; in experiment [4] (setting [8]), 0.03 mg/kg.
The corresponding values for `Cc1nc2scc(C)n2c(=O)c1CCN1CCC(c2noc3cc(F)ccc23)CC1` [Compound 13, 6-[2-[4-(6-fluoro-1,2-benzisoxazol-3-yl)-1-piperidinyl]ethyl]-3,7-dimethyl-5H-thiazolo[3,2-a]pyrimidin-5-one] are 0.02 mg/kg, 0.02 mg/kg, 0.08 mg/kg, 0.015 mg/kg and 0.06 mg/kg.
On the same counts, the results for `Cc1nc2n(c(=O)c1CCN1CCC(c3noc4cc(F)ccc34)CC1)CCS2` [Compound 14, 6-[2-[4-(6-fluoro-1,2-benzisoxazol-3-yl)-1-piperidinyl]ethyl]-2,3-dihydro-7-methyl-5H-thiazolo[3,2-a]pyrimidin-5-one] are 0.02 mg/kg, 0.005 mg/kg, 0.31 mg/kg, 0.004 mg/kg and 0.004 mg/kg.
The corresponding values for `Cc1nc2n(c(=O)c1CCN1CCC(c3noc4cc(F)ccc34)CC1)CCCS2` [Compound 15, 7-[2-[4-(6-fluoro-1,2-benzisoxazol-3-yl)-1-piperidinyl]ethyl]-3,4-dihydro-8-methyl-2H,6H-pyrimido[2,1-b][1,3]thiazin-6-one] are 0.08 mg/kg, 0.01 mg/kg, 0.31 mg/kg, 0.015 mg/kg and 0.06 mg/kg.
